*1 amine or outer side, *2 acyl side, *3 side chain or, on linkers, in order; H or OH if unused. Where a SMILES comes first, the peptide text is derived from it. Where no end group is shown, it is not given here. [ ]: non-standard residue; d: D form. The star is where a group is joined. Desaminotyrosyl = O=C(CCc1ccc(O)cc1)*; NMeY = CN[C@@H](Cc1ccc(O)cc1)C(=O)O; X2 = O=C([C@@H]1CC(O)CN1[*:1])[*:2]; Tic = O=C(O)[C@@H]1Cc2ccccc2CN1; Pip = O=C(O)[C@@H]1CCCCN1; Ac6c = NC1(C(=O)O)CCCCC1; Nle = CCCC[C@H](N)C(=O)O; Ac5c = NC1(C(=O)O)CCCC1; Aib = CC(C)(N)C(=O)O
Columns and labels:
[1] = Human plasma half-life assay; assay type: in vitro ADME
[2] = Rat plasma half-life assay; assay type: in vitro ADME; set-up: half-life: dose or concentration left out as unconfirmed; settings: for half-life at 0.1 mg/ml: rat plasma, 37° C., LC-MS, read-out: Rat Plasma T½ (converted)
[3] = human plasma, 37° C., LC-MS, read-out: Human Plasma T½ (converted)

`CC[C@H](C)[C@H](NC(=O)[C@H](CCCCN)NC(=O)[C@H](CC(=O)O)NC(=O)C1(NC(=O)[C@H](C)NC(=O)[C@@H](NC(=O)C2(NC(=O)[C@H](Cc3ccc(O)cc3)NC(=O)[C@H](CC(=O)O)NC(=O)[C@H](CO)NC(=O)[C@@H](NC(=O)[C@H](Cc3ccccc3)NC(=O)[C@@H](NC(=O)CNC(=O)[C@@H]3CCCCN3C(=O)[C@H](C)NC(=O)[C@@H](N)Cc3ccc(O)cc3)[C@@H](C)O)[C@@H](C)CC)CCCC2)[C@@H](C)CC)CCCCC1)C(=O)N[C@@H](Cc1c[nH]cn1)C(=O)N[C@@H](CCC(N)=O)C(=O)N[C@@H](CCC(N)=O)C(=O)N[C@@H](CC(=O)O)C(=O)N[C@@H](Cc1ccccc1)C(=O)N[C@H](C(=O)N[C@@H](CC(N)=O)C(=O)N[C@@H](Cc1c[nH]c2ccccc12)C(=O)N[C@@H](CC(C)C)C(=O)N[C@@H](CC(C)C)C(=O)N[C@@H](C)C(=O)N[C@@H](CCC(N)=O)C(=O)N[C@@H](CCCCN)C(=O)NCC(=O)N[C@@H](CCCCN)C(=O)N[C@@H](CCCCN)C(=O)N[C@@H](CC(N)=O)C(=O)N[C@@H](CC(=O)O)C(=O)N[C@@H](Cc1c[nH]c2ccccc12)C(=O)N[C@@H](CCCCN)C(=O)N[C@@H](Cc1c[nH]cn1)C(=O)N[C@@H](CC(N)=O)C(=O)N[C@H](C(=O)N[C@H](C(=O)N[C@@H](CCC(N)=O)C(=O)O)[C@@H](C)O)[C@@H](C)CC)C(C)C` [Example 83, (hPro^3, A5c^11, A6c^14)hGIP(1-42)-OH] showed a half-life at 0.1 mg/ml [1, 3] of 32.4 h and a half-life at 0.1 mg/ml [2] of 1.1 h.
For `CC[C@H](C)[C@H](NC(=O)[C@H](CCCCN)NC(=O)[C@H](CC(=O)O)NC(=O)C1(NC(=O)[C@H](C)NC(=O)[C@@H](NC(=O)C2(NC(=O)[C@H](Cc3ccc(O)cc3)NC(=O)[C@H](CC(=O)O)NC(=O)[C@H](CO)NC(=O)[C@@H](NC(=O)[C@H](Cc3ccccc3)NC(=O)[C@@H](NC(=O)CNC(=O)[C@@H]3CC(O)CN3C(=O)[C@H](C)NC(=O)[C@@H](N)Cc3ccc(O)cc3)[C@@H](C)O)[C@@H](C)CC)CCCC2)[C@@H](C)CC)CCCCC1)C(=O)N[C@@H](Cc1c[nH]cn1)C(=O)N[C@@H](CCC(N)=O)C(=O)N[C@@H](CCC(N)=O)C(=O)N[C@@H](CC(=O)O)C(=O)N[C@@H](Cc1ccccc1)C(=O)N[C@H](C(=O)N[C@@H](CC(N)=O)C(=O)N[C@@H](Cc1c[nH]c2ccccc12)C(=O)N[C@@H](CC(C)C)C(=O)N[C@@H](CC(C)C)C(=O)N[C@@H](C)C(=O)N[C@@H](CCC(N)=O)C(=O)N[C@@H](CCCCN)C(=O)NCC(=O)N[C@@H](CCCCN)C(=O)N[C@@H](CCCCN)C(=O)N[C@@H](CC(N)=O)C(=O)N[C@@H](CC(=O)O)C(=O)N[C@@H](Cc1c[nH]c2ccccc12)C(=O)N[C@@H](CCCCN)C(=O)N[C@@H](Cc1c[nH]cn1)C(=O)N[C@@H](CC(N)=O)C(=O)N[C@H](C(=O)N[C@H](C(=O)N[C@@H](CCC(N)=O)C(=O)O)[C@@H](C)O)[C@@H](C)CC)C(C)C` (stereo partly drawn) [Example 88, (4Hyp^3, A5c^11, A6c^14)hGIP(1-42)-OH], the half-life at 0.1 mg/ml [1, 3] was > 48 h and the half-life at 0.1 mg/ml [2] was 4.4 h.
Molecule `CC[C@H](C)[C@H](NC(=O)[C@H](CO)NC(=O)[C@H](Cc1ccc(O)cc1)NC(=O)[C@H](CC(=O)O)NC(=O)[C@H](CO)NC(=O)C1(NC(=O)[C@H](Cc2ccccc2)NC(=O)[C@@H](NC(=O)CNC(=O)[C@@H]2CCCN2C(=O)C(C)(C)NC(=O)[C@@H](N)Cc2ccc(O)cc2)[C@@H](C)O)CCCCC1)C(=O)N[C@@H](C)C(=O)N[C@@H](CCSC)C(=O)N[C@@H](CC(=O)O)C(=O)N[C@@H](CCCCN)C(=O)N[C@H](C(=O)N[C@@H](Cc1c[nH]cn1)C(=O)N[C@@H](CCC(N)=O)C(=O)N[C@@H](CCC(N)=O)C(=O)N[C@@H](CC(=O)O)C(=O)N[C@@H](Cc1ccccc1)C(=O)N[C@H](C(=O)N[C@@H](CC(N)=O)C(=O)N[C@@H](Cc1c[nH]c2ccccc12)C(=O)N[C@@H](CC(C)C)C(=O)N[C@@H](CC(C)C)C(=O)N[C@@H](C)C(=O)N[C@@H](CCC(N)=O)C(=O)N[C@@H](CCCCN)C(N)=O)C(C)C)[C@@H](C)CC` [Example 109, (Aib^2, Pro^3, A6c^7)hGIP(1-30)-NH2] has a half-life at 0.1 mg/ml [1, 3] of 27.2 h and a half-life at 0.1 mg/ml [2] of 47.8 h.
`CC[C@H](C)[C@H](NC(=O)[C@H](CCCCN)NC(=O)[C@H](CC(=O)O)NC(=O)[C@H](CCSC)NC(=O)[C@H](C)NC(=O)[C@@H](NC(=O)C1(NC(=O)[C@H](Cc2ccc(O)cc2)NC(=O)[C@H](CC(=O)O)NC(=O)[C@H](CO)NC(=O)[C@@H](NC(=O)[C@H](Cc2ccccc2)NC(=O)[C@@H](NC(=O)CNC(=O)[C@@H]2CCCN2C(=O)C(C)(C)NC(=O)[C@@H](N)Cc2ccc(O)cc2)[C@@H](C)O)[C@@H](C)CC)CCCC1)[C@@H](C)CC)C(=O)N[C@@H](Cc1c[nH]cn1)C(=O)N[C@@H](CCC(N)=O)C(=O)N[C@@H](CCC(N)=O)C(=O)N[C@@H](CC(=O)O)C(=O)N[C@@H](Cc1ccccc1)C(=O)N[C@H](C(=O)N[C@@H](CC(N)=O)C(=O)N[C@@H](Cc1c[nH]c2ccccc12)C(=O)N[C@@H](CC(C)C)C(=O)N[C@@H](CC(C)C)C(=O)N[C@@H](C)C(=O)N[C@@H](CCC(N)=O)C(=O)N[C@@H](CCCCN)C(N)=O)C(C)C` [Example 110, (Aib^2, Pro^3, A5c^11)hGIP(1-30)-NH2] (H-Y[Aib]PGTFISDY[Ac5c]IAMDKIHQQDFVNWLLAQK-NH2; N-terminus assumed) showed a half-life at 0.1 mg/ml [1, 3] of 13.7 h and a half-life at 0.1 mg/ml [2] of 25.8 h.
For `CCCC[C@H](NC(=O)[C@H](C)NC(=O)[C@@H](NC(=O)C1(NC(=O)[C@H](Cc2ccc(O)cc2)NC(=O)[C@H](CC(=O)O)NC(=O)[C@H](CO)NC(=O)[C@@H](NC(=O)[C@H](Cc2ccccc2)NC(=O)[C@@H](NC(=O)CNC(=O)[C@@H]2CCCN2C(=O)C(C)(C)NC(=O)[C@@H](N)Cc2ccc(O)cc2)[C@@H](C)O)[C@@H](C)CC)CCCC1)[C@@H](C)CC)C(=O)N[C@@H](CC(=O)O)C(=O)N[C@@H](CCCCN)C(=O)N[C@H](C(=O)N[C@@H](Cc1c[nH]cn1)C(=O)N[C@@H](CCC(N)=O)C(=O)N[C@@H](CCC(N)=O)C(=O)N[C@@H](CC(=O)O)C(=O)N[C@@H](Cc1ccccc1)C(=O)N[C@H](C(=O)N[C@@H](CC(N)=O)C(=O)N[C@@H](Cc1c[nH]c2ccccc12)C(=O)N[C@@H](CC(C)C)C(=O)N[C@@H](CC(C)C)C(=O)N[C@@H](C)C(=O)N[C@@H](CCC(N)=O)C(=O)N[C@@H](CCCCN)C(N)=O)C(C)C)[C@@H](C)CC` [Example 111, (Aib^2, Pro^3, A5c^11, Nle^14)hGIP(1-30)-NH2], the half-life at 0.1 mg/ml [1, 3] was > 54 h and the half-life at 0.1 mg/ml [2] was > 54 h.
With `CC[C@H](C)[C@H](NC(=O)[C@H](CCCCN)NC(=O)[C@H](CC(=O)O)NC(=O)C1(NC(=O)[C@H](C)NC(=O)[C@@H](NC(=O)C2(NC(=O)[C@H](Cc3ccc(O)cc3)NC(=O)[C@H](CC(=O)O)NC(=O)[C@H](CO)NC(=O)[C@@H](NC(=O)[C@H](Cc3ccccc3)NC(=O)[C@@H](NC(=O)CNC(=O)[C@@H]3CCCN3C(=O)C(C)(C)NC(=O)[C@@H](N)Cc3ccc(O)cc3)[C@@H](C)O)[C@@H](C)CC)CCCC2)[C@@H](C)CC)CCCCC1)C(=O)N[C@@H](Cc1c[nH]cn1)C(=O)N[C@@H](CCC(N)=O)C(=O)N[C@@H](CCC(N)=O)C(=O)N[C@@H](CC(=O)O)C(=O)N[C@@H](Cc1ccccc1)C(=O)N[C@H](C(=O)N[C@@H](CC(N)=O)C(=O)N[C@@H](Cc1c[nH]c2ccccc12)C(=O)N[C@@H](CC(C)C)C(=O)N[C@@H](CC(C)C)C(=O)N[C@@H](C)C(=O)N[C@@H](CCC(N)=O)C(=O)N[C@@H](CCCCN)C(N)=O)C(C)C` [Example 112, (Aib^2, Pro^3, A5c^11, A6c^14)hGIP(1-30)-NH2] (H-Y[Aib]PGTFISDY[Ac5c]IA[Ac6c]DKIHQQDFVNWLLAQK-NH2; N-terminus assumed) the half-life at 0.1 mg/ml [1, 3] was 59.7 h and the half-life at 0.1 mg/ml [2] was > 72 h.
For “Desaminotyrosyl-AEGTFISDYSI[Aib]MDKIHQQDFVNWLLAQKGKKNDWKHNITQ-OH [Example 101, (4Hppa^1, Aib^13)hGIP(1-42)-OH]”, the half-life at 0.1 mg/ml [1, 3] was 47.5 h and the half-life at 0.1 mg/ml [2] was 13.4 h.
In the case of “H-YAPGTFISDYSIAMDKIHQQDFVNWLLAQKGKKNDWKHNITQ-OH [[Pro^3]hGIP(1-42)-OH, reference compound]”, the half-life at 0.1 mg/ml ([1]; human, plasma, same experimental conditions as Table 2, read-out: human plasma half-life (converted)) is reported as 10.8 h and the half-life ([2]; rat, plasma, same experimental conditions as Table 2, read-out: rat plasma half-life (converted)) is reported as 0.8 h.
For “H-YA[X2]GTFISDYSIA[Ac6c]DKIHQQDFVNWLLAQKGKKNDWKHNITQ-OH [Example 84, (4Hyp^3, A6c^14)hGIP(1-42)-OH]”, the half-life at 0.1 mg/ml [1, 3] was 3.3 h and the half-life at 0.1 mg/ml [2] was 1.9 h.
For “H-YA[X2]GTFISDY[Ac5c]IAMDKIHQQDFVNWLLAQKGKKNDWKHNITQ-OH [Example 87, (4Hyp^3, A5c^11)hGIP(1-42)-OH]”, the half-life at 0.1 mg/ml [1, 3] was 38.7 h and the half-life at 0.1 mg/ml [2] was 3.4 h.
“H-[NMeY][Aib]EGTFISDY[Ac5c]IA[Nle]DKIHQQDFVNWLLAQKGKKNDWKHNITQ-OH [Example 113, (NMe-Tyr^1, Aib^2, A5c^11, Nle^14)hGIP(1-42)-OH]” showed a half-life at 0.1 mg/ml [1, 3] of 61.9 h and a half-life at 0.1 mg/ml [2] of 27 h.
“YAPGTFISDYSIA[Ac6c]DKIHQQDFVNWLLAQKGKKNDWKHNITQ-OH [Example 91, (Pro^3, A6c^14)hGIP(1-42)-OH]” showed a half-life at 0.1 mg/ml [1, 3] of 13.4 h and a half-life at 0.1 mg/ml [2] of 1 h.
With “YAPGTFISDYSI[Aib]MDKIHQQDFVNWLLAQKGKKNDWKHNITQ [Example 75, (Pro^3, Aib^13)hGIP(1-42)-OH]” the half-life at 0.1 mg/ml [1, 3] was 26.1 h and the half-life at 0.1 mg/ml [2] was 1.9 h.
With “YAPGTFISDYSI[Aib][Nle]DKIHQQDFVNWLLAQKGKKNDWKHNITQ-OH [Example 62, (Pro^3, Aib^13, Nle^14)hGIP(1-42)-OH]” the half-life at 0.1 mg/ml [1, 3] was 11.4 h and the half-life at 0.1 mg/ml [2] was 1.4 h.
“YAPGTFISDY[Ac5c]IA[Ac6c]DKIHQQDFVNWLLAQKGKKNDWKHNITQ-OH [Example 102, (Pro^3, A5c^11, A6c^14)hGIP(1-42)-OH]” showed a half-life at 0.1 mg/ml [1, 3] of 54.1 h and a half-life at 0.1 mg/ml [2] of 1.7 h.
With “YA[Pip]GTFISDYSI[Aib]MDKIHQQDFVNWLLAQKGKKNDWKHNITQ [Example 65, (hPro^3, Aib^13)hGIP(1-42)-OH]” the half-life at 0.1 mg/ml [1, 3] was 14.3 h and the half-life at 0.1 mg/ml [2] was 1.5 h.
Work on “YA[Pip]GTFISDYSI[Aib][Nle]DKIHQQDFVNWLLAQKGKKNDWKHNITQ-OH [Example 63, (hPro^3, Aib^13, Nle^14)hGIP(1-42)-OH]” yielded a half-life at 0.1 mg/ml [1, 3] of 14.2 h and a half-life at 0.1 mg/ml [2] of 1.4 h.
Molecule “YA[Tic]GTFISDYSI[Aib]MDKIHQQDFVNWLLAQKGKKNDWKHNITQ [Example 66, (Tic^3, Aib^13)hGIP(1-42)-OH]” has a half-life at 0.1 mg/ml [1, 3] of 19.1 h and a half-life at 0.1 mg/ml [2] of 8.8 h.
